From patent US20260132140A1, “IMIDAZOLYL-AMINO-PYRAZINE-CARBONITRILS AS CHK-1 INHIBITORS” (BenevolentAI Bio Limited, priority 2022, published 2026) come the findings set out here.

One experiment relates to GBM LN18 cells. Put plainly: In vitro cell viability assay (Cell Titre Glo, 72 hours). In kind it is cell-based. Particulars: Homo sapiens, LN-18, read-out: LN18 pIC50 (converted). As for the experimental part: GBM LN18 cells were incubated with increasing concentrations of selected compounds of the invention for 72 hours prior to the measurement of ATP in metabolically viable cells with the Cell Titre® Glo Luminescent reagent. A 10-point concentration response curve up to a maximum concentration of 10 μM was tested.
The percent (%) effect i.e., inhibition at each concentration of compound was calculated based on, and relative to the amount of inhibition produced in the vehicle control and inhibited control wells contained within each plate.

In experiment [1] the test system is pChk1(Ser296) in SW620 cells. The experiment is described as follows: pChk1(Ser296) sandwich ELISA, cell-based on-target kinase activity. Particulars: Homo sapiens, read-out: SW620 pIC50 (converted). As for the experimental part:
ELISA assays were performed as per the manufacturer's protocol. […] Selected compounds of the invention were tested as a 8-point concentration response up to a maximum concentration of either 1 μM, 3 μM or 10 μM. The percent (%) effect i.e. inhibition at each concentration of compound was calculated based on, and relative to, the amount of inhibition produced in the vehicle control and inhibited control wells contained within each plate.

Another experiment concerns the target T1, human Chk1 kinase (Homo sapiens, UniProt O14757).
T1 sequence (O14757 1-476): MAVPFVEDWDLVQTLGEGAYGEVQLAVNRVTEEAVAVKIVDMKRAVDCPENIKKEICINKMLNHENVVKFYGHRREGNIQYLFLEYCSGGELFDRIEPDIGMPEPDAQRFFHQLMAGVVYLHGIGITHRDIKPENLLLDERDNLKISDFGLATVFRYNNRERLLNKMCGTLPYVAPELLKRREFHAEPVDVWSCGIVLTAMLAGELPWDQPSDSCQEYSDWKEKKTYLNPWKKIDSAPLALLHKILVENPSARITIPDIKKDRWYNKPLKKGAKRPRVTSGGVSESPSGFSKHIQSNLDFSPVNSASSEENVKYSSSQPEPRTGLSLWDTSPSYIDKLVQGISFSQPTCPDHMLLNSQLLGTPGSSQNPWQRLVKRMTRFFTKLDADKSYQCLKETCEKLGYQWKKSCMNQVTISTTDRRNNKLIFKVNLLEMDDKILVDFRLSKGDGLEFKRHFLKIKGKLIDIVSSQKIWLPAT
Put plainly: biochemical.

A further experiment concerns the target human Chk2 kinase (Homo sapiens, UniProt O96017). Put plainly: biochemical.
For a further experiment, the target named is T2, RSK1 (Homo sapiens, UniProt Q15418).
T2 construct: purchased Eurofins (KinaseProfiler service)
The experiment is described as follows: RSK1-4 kinase assay (Eurofins KinaseProfiler, radiometric): RSK1. Particulars: approximately ATP Km. The format is biochemical. The text has this:
(§1) The radiometric kinase activity assays were run at approximately the ATP Km for each kinase and the IC50 data is shown in Table 24.

A further experiment has as its target T3, RSK2 (Homo sapiens, UniProt P51812).
T3 construct: purchased Eurofins (KinaseProfiler service)
The experiment is described as follows: RSK1-4 kinase assay (Eurofins KinaseProfiler, radiometric): RSK2. In kind it is biochemical. Particulars: approximately ATP Km.
Description: as §1

The next experiment concerns the target T4, RSK3 (Homo sapiens, UniProt Q15349).
T4 construct: purchased Eurofins (KinaseProfiler service)
Put plainly: RSK1-4 kinase assay (Eurofins KinaseProfiler, radiometric): RSK3. The format is biochemical. Particulars: approximately ATP Km.
Description: as §1

In a further experiment the target is T5, RSK4 (Homo sapiens, UniProt Q9UK32).
T5 construct: purchased Eurofins (KinaseProfiler service)
Put plainly: RSK1-4 kinase assay (Eurofins KinaseProfiler, radiometric): RSK4. The format is biochemical. Particulars: approximately ATP Km.
Description: as §1

[2] abbreviates: SW-620, neocarzinostatin 7.5 μM, 2 hours.
[3] abbreviates: SW-620, 2 h, neocarzinostatin 7.5 μM.

Each structure is given as a SMILES string. Like-named read-outs stand apart in the source and are kept apart here.

human Chk2 kinase, sequence (O96017 whole entry): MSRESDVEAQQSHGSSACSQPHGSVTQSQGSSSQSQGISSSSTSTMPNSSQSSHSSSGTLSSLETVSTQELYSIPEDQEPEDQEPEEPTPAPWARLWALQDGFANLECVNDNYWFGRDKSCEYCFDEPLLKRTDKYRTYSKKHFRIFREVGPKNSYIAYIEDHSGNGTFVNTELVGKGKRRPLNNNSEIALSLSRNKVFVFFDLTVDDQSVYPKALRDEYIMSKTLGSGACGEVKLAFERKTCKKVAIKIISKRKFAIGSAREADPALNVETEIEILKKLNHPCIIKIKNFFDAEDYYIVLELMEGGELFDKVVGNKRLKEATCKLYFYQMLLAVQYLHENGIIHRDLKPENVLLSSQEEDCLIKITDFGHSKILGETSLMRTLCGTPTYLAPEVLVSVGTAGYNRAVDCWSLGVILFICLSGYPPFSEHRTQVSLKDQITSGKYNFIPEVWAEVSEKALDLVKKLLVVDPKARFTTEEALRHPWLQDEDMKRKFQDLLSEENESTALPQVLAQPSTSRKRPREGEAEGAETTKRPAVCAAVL
T5 sequence (Q9UK32 whole entry): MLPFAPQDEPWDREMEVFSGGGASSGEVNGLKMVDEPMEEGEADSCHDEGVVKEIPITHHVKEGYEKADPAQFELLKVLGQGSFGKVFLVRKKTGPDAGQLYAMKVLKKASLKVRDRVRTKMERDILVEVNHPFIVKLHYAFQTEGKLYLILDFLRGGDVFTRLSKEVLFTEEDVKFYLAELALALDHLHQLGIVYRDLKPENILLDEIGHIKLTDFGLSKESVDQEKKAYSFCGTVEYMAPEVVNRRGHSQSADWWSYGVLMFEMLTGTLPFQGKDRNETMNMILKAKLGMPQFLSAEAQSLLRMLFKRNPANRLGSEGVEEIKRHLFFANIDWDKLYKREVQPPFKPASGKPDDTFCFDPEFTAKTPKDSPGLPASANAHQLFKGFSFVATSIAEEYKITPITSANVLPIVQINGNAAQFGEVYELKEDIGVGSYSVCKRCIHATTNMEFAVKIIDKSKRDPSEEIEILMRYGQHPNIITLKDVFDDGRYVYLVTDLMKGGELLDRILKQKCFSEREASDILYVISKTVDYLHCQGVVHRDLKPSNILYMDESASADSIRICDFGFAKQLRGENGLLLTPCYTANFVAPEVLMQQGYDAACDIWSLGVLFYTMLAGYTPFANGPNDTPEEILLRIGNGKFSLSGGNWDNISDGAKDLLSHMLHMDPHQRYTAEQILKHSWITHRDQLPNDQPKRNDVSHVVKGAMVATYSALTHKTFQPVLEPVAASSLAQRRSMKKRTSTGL
T4 sequence (Q15349 whole entry): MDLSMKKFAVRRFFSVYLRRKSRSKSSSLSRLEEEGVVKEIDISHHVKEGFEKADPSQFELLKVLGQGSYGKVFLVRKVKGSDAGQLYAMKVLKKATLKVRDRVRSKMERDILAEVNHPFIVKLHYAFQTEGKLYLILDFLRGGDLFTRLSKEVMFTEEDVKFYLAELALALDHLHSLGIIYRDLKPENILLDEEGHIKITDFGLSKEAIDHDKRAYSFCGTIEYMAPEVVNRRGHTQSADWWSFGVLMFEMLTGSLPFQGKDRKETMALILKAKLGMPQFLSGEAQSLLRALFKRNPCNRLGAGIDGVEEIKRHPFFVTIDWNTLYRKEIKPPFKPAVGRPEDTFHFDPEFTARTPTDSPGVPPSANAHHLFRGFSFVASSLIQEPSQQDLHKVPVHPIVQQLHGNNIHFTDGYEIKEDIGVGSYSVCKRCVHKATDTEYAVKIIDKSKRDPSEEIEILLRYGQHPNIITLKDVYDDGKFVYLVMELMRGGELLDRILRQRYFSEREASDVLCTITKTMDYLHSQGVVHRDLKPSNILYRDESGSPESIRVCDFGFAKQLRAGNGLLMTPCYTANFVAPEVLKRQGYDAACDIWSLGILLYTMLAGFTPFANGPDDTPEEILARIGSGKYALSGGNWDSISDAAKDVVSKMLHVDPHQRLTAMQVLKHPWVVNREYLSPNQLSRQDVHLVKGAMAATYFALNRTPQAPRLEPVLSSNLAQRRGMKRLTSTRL
T2 sequence (Q15418 whole entry): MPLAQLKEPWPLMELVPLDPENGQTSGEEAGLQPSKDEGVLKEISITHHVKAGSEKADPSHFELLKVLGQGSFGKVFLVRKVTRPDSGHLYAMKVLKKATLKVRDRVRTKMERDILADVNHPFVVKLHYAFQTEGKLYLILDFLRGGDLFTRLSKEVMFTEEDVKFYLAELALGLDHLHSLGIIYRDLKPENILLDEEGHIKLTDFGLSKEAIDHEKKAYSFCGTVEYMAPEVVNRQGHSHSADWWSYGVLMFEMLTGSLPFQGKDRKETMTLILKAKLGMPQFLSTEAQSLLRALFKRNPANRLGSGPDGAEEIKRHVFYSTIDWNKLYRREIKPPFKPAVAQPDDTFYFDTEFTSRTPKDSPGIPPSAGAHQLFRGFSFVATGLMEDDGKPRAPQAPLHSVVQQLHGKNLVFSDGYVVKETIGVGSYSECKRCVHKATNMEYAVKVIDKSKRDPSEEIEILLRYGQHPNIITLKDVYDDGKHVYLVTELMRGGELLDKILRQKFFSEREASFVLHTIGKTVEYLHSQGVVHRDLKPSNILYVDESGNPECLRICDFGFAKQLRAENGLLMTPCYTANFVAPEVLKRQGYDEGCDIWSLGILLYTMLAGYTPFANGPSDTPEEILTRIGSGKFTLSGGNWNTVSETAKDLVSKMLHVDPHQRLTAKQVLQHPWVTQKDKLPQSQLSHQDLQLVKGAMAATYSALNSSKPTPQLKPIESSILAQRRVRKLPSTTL
T3 sequence (P51812 whole entry): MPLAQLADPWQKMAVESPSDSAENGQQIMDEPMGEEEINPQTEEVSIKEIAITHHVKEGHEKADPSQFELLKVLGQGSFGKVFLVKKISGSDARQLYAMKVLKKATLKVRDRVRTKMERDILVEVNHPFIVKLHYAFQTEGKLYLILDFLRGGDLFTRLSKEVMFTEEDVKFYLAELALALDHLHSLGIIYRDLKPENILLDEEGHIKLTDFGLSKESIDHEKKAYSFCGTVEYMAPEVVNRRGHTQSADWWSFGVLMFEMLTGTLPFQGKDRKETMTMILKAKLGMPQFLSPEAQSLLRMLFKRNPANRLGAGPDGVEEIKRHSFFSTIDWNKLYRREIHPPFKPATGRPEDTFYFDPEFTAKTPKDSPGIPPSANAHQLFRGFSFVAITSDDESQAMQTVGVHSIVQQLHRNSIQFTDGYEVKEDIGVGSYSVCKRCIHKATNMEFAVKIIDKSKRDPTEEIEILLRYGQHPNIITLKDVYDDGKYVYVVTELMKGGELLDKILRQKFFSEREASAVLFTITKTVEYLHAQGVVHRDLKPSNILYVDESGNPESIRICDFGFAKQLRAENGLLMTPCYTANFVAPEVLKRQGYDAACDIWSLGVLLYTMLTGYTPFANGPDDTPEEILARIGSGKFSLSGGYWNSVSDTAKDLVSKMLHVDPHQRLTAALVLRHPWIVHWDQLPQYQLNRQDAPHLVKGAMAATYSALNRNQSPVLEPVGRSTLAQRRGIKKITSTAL

`C[C@H]1CN(c2ccc(-n3cnc(Nc4cnc(C#N)cn4)c3)cc2)C[C@@H]1N(C)C` [Example 73, 5-((1-(4-((3R,4S)-3-(Dimethylamino)-4-methylpyrrolidin-1-yl)phenyl)-1H-imidazol-4-yl)amino)pyrazine-2-carbonitrile]: the IC50 in the experiment with GBM LN18 cells is below 1000 nM; in experiment [1] (setting [2]), below 1000 nM; on human Chk1 kinase, below 10 nM; on human Chk2 kinase, 1000 to 10000 nM.

With `CN1CCC(F)(c2ccc(-n3cnc(Nc4cnc(C#N)cn4)c3)cc2)CC1` [Example 4, 5-((1-(4-(4-Fluoro-1-methylpiperidin-4-yl)phenyl)-1H-imidazol-4-yl)amino)pyrazine-2-carbonitrile], the IC50 on RSK1 was above 10000 nM; against RSK2, 2460 nM; against RSK3, 2210 nM; against RSK4 it was 4960 nM.

For the molecule `[2H]C([2H])([2H])N([C@@H]1CCN(c2ccc(-n3cnc(Nc4cnc(C#N)cn4)c3)cc2)C1)C([2H])([2H])[2H]` [Example 84, (R)-5-((1-(4-(3-(Bis(methyl-d3)amino)pyrrolidin-1-yl)phenyl)-1H-imidazol-4-yl)amino)pyrazine-2-carbonitrile], the values for the IC50 (with GBM LN18 cells; in experiment [1] (setting [2]); at human Chk1 kinase) were below 1000 nM, 1000 to 10000 nM and below 10 nM, respectively.

In the case of `CN1C[C@@H]2CN(c3ccc(-n4cnc(Nc5cnc(C#N)cn5)c4)cc3)C[C@@H]21` [Example 1, 5-((1-(4-((1R,5R)-6-Methyl-3,6-diazabicyclo[3.2.0]heptan-3-yl)phenyl)-1H-imidazol-4-yl)amino)pyrazine-2-carbonitrile], the IC50 was below 1000 nM in the experiment on GBM LN18 cells, 1000 to 10000 nM in experiment [1] (setting [3]), below 10 nM on human Chk1 kinase and 1000 to 10000 nM on human Chk2 kinase.

Consider `CN(C)[C@]1(C)CCN(c2ccc(-n3cnc(Nc4cnc(C#N)cn4)c3)cc2)C1` [Example 78, (R)-5-((1-(4-(3-(Dimethylamino)-3-methylpyrrolidin-1-yl)phenyl)-1H-imidazol-4-yl)amino)pyrazine-2-carbonitrile], for which the IC50 is below 1000 nM with GBM LN18 cells, below 1000 nM in experiment [1] (setting [2]), below 10 nM against human Chk1 kinase and 1000 to 10000 nM against human Chk2 kinase.

In the case of `CN[C@H]1CN(c2ccc(-n3cnc(Nc4cnc(C#N)cn4)c3)cc2)C[C@H]1F` [Example 92, 5-((1-(4-((3R,4S)-3-Fluoro-4-(methylamino)pyrrolidin-1-yl)phenyl)-1H-imidazol-4-yl)amino)pyrazine-2-carbonitrile], the IC50 was below 1000 nM in the experiment on GBM LN18 cells, below 1000 nM in experiment [1] (setting [3]), below 10 nM against human Chk1 kinase and 1000 to 10000 nM at human Chk2 kinase.

For the molecule `COc1cc(N2CC[C@@H](N(C)C)C2)ccc1-n1cnc(Nc2cnc(C#N)cn2)c1` [Example 47, (R)-5-((1-(4-(3-(Dimethylamino)pyrrolidin-1-yl)-2-methoxyphenyl)-1H-imidazol-4-yl)amino)pyrazine-2-carbonitrile], the IC50 (in the experiment with GBM LN18 cells; in experiment [1] (setting [2])) was below 1000 nM each time.

Consider `Cc1nc(-n2cnc(Nc3cnc(C#N)cn3)c2)ccc1N1CC[C@@H](N(C)C)C1` [Example 59, (R)-5-((1-(5-(3-(Dimethylamino)pyrrolidin-1-yl)-6-methylpyridin-2-yl)-1H-imidazol-4-yl)amino)pyrazine-2-carbonitrile], for which the IC50 in the experiment with GBM LN18 cells was below 1000 nM; in experiment [1] (setting [3]), 1000 to 10000 nM; at human Chk1 kinase, below 10 nM; on human Chk2 kinase it was 1000 to 10000 nM.

For the molecule `N#Cc1cnc(Nc2cn(-c3ccc(N4CC[C@@H](N)C4)cc3)cn2)cn1` [Example 153, (R)-5-((1-(4-(3-Aminopyrrolidin-1-yl)phenyl)-1H-imidazol-4-yl)amino)pyrazine-2-carbonitrile], the IC50 with GBM LN18 cells is 1000 to 10000 nM; in experiment [1] (setting [3]), 1000 to 10000 nM; against human Chk1 kinase, 10 to 31.6 nM; at human Chk2 kinase it was 1000 to 10000 nM.

Consider `N#Cc1cnc(Nc2cn(-c3ccc(N4CC(CN)C4)cc3)cn2)cn1` [Example 158, 5-((1-(4-(3-(Aminomethyl)azetidin-1-yl)phenyl)-1H-imidazol-4-yl)amino)pyrazine-2-carbonitrile], for which the IC50 in the experiment with GBM LN18 cells is 1000 to 10000 nM; on human Chk1 kinase, 10 to 31.6 nM; on human Chk2 kinase it was 10000 to 100000 nM.

As to `N#Cc1cnc(Nc2cn(-c3ccc(N4CCC(N5CCC5)C4)cc3)cn2)cn1` (single isomer, unassigned) [Example 113, 5-((1-(4-(3-(Azetidin-1-yl)pyrrolidin-1-yl)phenyl)-1H-imidazol-4-yl)amino)pyrazine-2-carbonitrile], the IC50 in the experiment with GBM LN18 cells is below 1000 nM; in experiment [1] (setting [3]), 1000 to 10000 nM; against human Chk1 kinase, 10 to 31.6 nM; at human Chk2 kinase, 10000 to 100000 nM.

Take `N#Cc1cnc(Nc2cn(-c3ccc(N4C[C@@H](F)[C@@H](N)C4)cc3)cn2)cn1` [Example 157, 5-((1-(4-((3S,4R)-3-Amino-4-fluoropyrrolidin-1-yl)phenyl)-1H-imidazol-4-yl)amino)pyrazine-2-carbonitrile]: the IC50 in the experiment on GBM LN18 cells was 1000 to 10000 nM; against human Chk1 kinase, below 10 nM; against human Chk2 kinase it was 10000 to 100000 nM.

Regarding `CN(C)[C@@H]1CCN(c2ccc(-n3cnc(Nc4cnc(C#N)cn4)c3)c(F)c2)C1` [Example 65, (R)-5-((1-(4-(3-(Dimethylamino)pyrrolidin-1-yl)-2-fluorophenyl)-1H-imidazol-4-yl)amino)pyrazine-2-carbonitrile], the IC50 with GBM LN18 cells is below 1000 nM; in experiment [1] (setting [2]), 1000 to 10000 nM.

Take `C[C@@H]1C[C@@H](N)CN1c1ccc(-n2cnc(Nc3cnc(C#N)cn3)c2)cc1` [Example 165, 5-((1-(4-((2R,4R)-4-Amino-2-methylpyrrolidin-1-yl)phenyl)-1H-imidazol-4-yl)amino)pyrazine-2-carbonitrile]: the IC50 in the experiment with GBM LN18 cells is below 1000 nM; at human Chk1 kinase, below 10 nM; against human Chk2 kinase, 1000 to 10000 nM.

Turning to `C[C@@H]1C[C@@H](N(C)C)CN1c1ccc(-n2cnc(Nc3cnc(C#N)cn3)c2)cc1` [Example 74, 5-((1-(4-((2R,4R)-4-(Dimethylamino)-2-methylpyrrolidin-1-yl)phenyl)-1H-imidazol-4-yl)amino)pyrazine-2-carbonitrile], the IC50 (with GBM LN18 cells; in experiment [1] (setting [2])) was below 1000 nM throughout.

In the case of `C[C@@H]1C[C@@H](N(C)C)CN1c1ccc(-n2cnc(Nc3cnc(C#N)cn3)c2)nc1` [Example 85, 5-((1-(5-((2R,4R)-4-(Dimethylamino)-2-methylpyrrolidin-1-yl)pyridin-2-yl)-1H-imidazol-4-yl)amino)pyrazine-2-carbonitrile], the IC50 in the experiment on GBM LN18 cells is below 1000 nM; in experiment [1] (setting [3]), below 1000 nM; against human Chk1 kinase it was below 10 nM; against human Chk2 kinase it was 1000 to 10000 nM.

Regarding `C[C@@]1(N)CCN(c2ccc(-n3cnc(Nc4cnc(C#N)cn4)c3)cc2)C1` [Example 156, (R)-5-((1-(4-(3-Amino-3-methylpyrrolidin-1-yl)phenyl)-1H-imidazol-4-yl)amino)pyrazine-2-carbonitrile], the IC50 was below 1000 nM in the experiment with GBM LN18 cells, 1000 to 10000 nM in experiment [1] (setting [3]), 10 to 31.6 nM against human Chk1 kinase and 10000 to 100000 nM against human Chk2 kinase.

Turning to `C[N+](C)([O-])[C@@H]1CCN(c2ccc(-n3cnc(Nc4cnc(C#N)cn4)c3)cc2)C1` [Example 141, (R)-1-(4-(4-((5-Cyanopyrazin-2-yl)amino)-1H-imidazol-1-yl)phenyl)-N,N-dimethylpyrrolidin-3-amine oxide], the IC50 is 1000 to 10000 nM with GBM LN18 cells, 100 to 316 nM at human Chk1 kinase and 10000 to 100000 nM at human Chk2 kinase.

`N#Cc1cnc(Nc2cn(-c3ccc(N4C[C@H](N)C5(CC5)C4)cc3)cn2)cn1` [Example 154, (R)-5-((1-(4-(7-Amino-5-azaspiro[2.4]heptan-5-yl)phenyl)-1H-imidazol-4-yl)amino)pyrazine-2-carbonitrile]: the IC50 with GBM LN18 cells is below 1000 nM; in experiment [1] (setting [3]), 1000 to 10000 nM; against human Chk1 kinase, below 10 nM; against human Chk2 kinase it was 1000 to 10000 nM.

As to `CN1C[C@@H]2CN(c3ccc(-n4cnc(Nc5cnc(C#N)cn5)c4)cc3)[C@@H]2C1` [Example 67, 5-((1-(4-((1R,5S)-3-Methyl-3,6-diazabicyclo[3.2.0]heptan-6-yl)phenyl)-1H-imidazol-4-yl)amino)pyrazine-2-carbonitrile], the values for the IC50 in the experiment on GBM LN18 cells, on human Chk1 kinase and on human Chk2 kinase were below 1000 nM, 31.6 to 100 nM and 10000 to 100000 nM, respectively.
